Reference: patent publication US12624023B2, “Sulfonylurea derivatives and uses thereof” (NodThera Limited, priority 2019, dated 2026)

Key:
[1] = tested on: IL-1β release upon NLRP3 activation in human whole blood; assay: Whole blood (WB) assay (IL-1β release, LPS priming + ATP stimulation, HTRF); format: cell-based; conditions: heparin, diluted 9:5 with media, LPS 1 μg/ml 3 h, compound 30 min, ATP 5 mM 1 h, IL-1β by HTRF
Description: The compounds of the present disclosure were tested for their inhibitory activity against IL-1β release upon NLRP3 activation in human whole blood.
Whole blood was drawn from single healthy donors and treated with sodium heparin anticoagulant. Blood was diluted with cell culture media at a 9:5 ratio, seeded in a 96-well plate and incubated for 3 h with lipopolysaccharide (LPS, 1 μg/ml final concentration diluted 1000× from a 1 mg/ml stock solution). The compounds of the present disclosure were added (a single compound concentration per well) and the blood was incubated for 30 min. Next, the blood was stimulated with ATP (5 mM final concentration diluted 20× from a 100 mM stock solution) for 1 h and the cell culture media from the wells were collected for further analysis.
The release of IL-1β into the media was determined by quantitative detection of IL-1β in the media using HTRF®, CisBio cat. No. 62HIL1BPEH. Briefly, cell culture supernatant were diluted as appropriate to bring IL-1β levels within the HTRF® detection range ([…]) and subsequently dispensed into the assay plate containing antibodies labelled with the HTRF® donor and acceptor. A microplate spectrophotometer (BMG) was used to detect signals at 655 nm and 620 nm.

[2] = tested on: IL-1β release upon NLRP3 activation in peripheral blood mononuclear cells (PBMC); assay: PBMC IC50 determination assay (IL-1β release, LPS priming + ATP stimulation, HTRF); format: cell-based; conditions: PBMC from buffy coats; LPS 1 μg/ml 3 h, compound 30 min, ATP 5 mM 1 h; IL-1β by HTRF
Description: The compounds of the present disclosure were tested for their inhibitory activity against IL-1β release upon NLRP3 activation in peripheral blood mononuclear cells (PBMC).
PBMC were isolated from buffy coats by density gradient centrifugation on Histopaque-1077 (Sigma, cat no. 10771). Isolated cells were seeded into the wells (280,000 cells/well) of a 96-well plate and incubated for 3 h with lipopolysaccharide (LPS, 1 μg/ml diluted 1000× from a 1 mg/ml stock solution). The compounds of the present disclosure were added (a single compound per well) and the cells were incubated for 30 min. Next, the cells were stimulated with ATP (5 mM final concentration diluted 20× from a 100 mM stock solution) for 1 h and the cell culture media from the wells were collected for further analysis.
The release of IL-1β into the media was determined by quantitative detection of IL-1β in the media using HTRF®, CisBio cat. No. 62HIL1BPEH. Briefly, cell culture supernatant were dispensed directly into the assay plate containing antibodies labelled with the HTRF® donor and acceptor. A microplate spectrophotometer (BMG) was used to detect signals at 655 nm and 620 nm. The detection range of IL-1β HTRF® was […].

SMILES | IC50 [1] | IC50 [2]
Cc1sc2ccccc2c1NC(=O)NS(=O)(=O)N(c1cnn(C)c1)C1CCOCC1 [Compound 3, 3-(2-Methyl-1-benzothiophen-3-yl)-1-[(1-methyl-1H-pyrazol-4-yl)(oxan-4-yl)sulfamoyl]urea] | > 20000 nM | 1000 to 5000 nM
Cn1cc(N(C2CCOCC2)S(=O)(=O)NC(=O)Nc2cc(Cl)sc2Cl)cn1 [Compound 5, 3-(2,5-Dichlorothiophen-3-yl)-1-[(1-methyl-1H-pyrazol-4-yl)(oxan-4-yl)sulfamoyl]urea] | > 20000 nM | 5000 to 10000 nM
CC(C)c1cc(NC(=O)NS(=O)(=O)N(c2cnn(C)c2)C2CCOCC2)c(C(C)C)s1 [Compound 6, 3-[2,5-Bis(propan-2-yl)thiophen-3-yl]-1-[(1-methyl-1H-pyrazol-4-yl)(oxan-4-yl)sulfamoyl]urea] | > 20000 nM | 500 to 1000 nM
Cc1sc(C)c(NC(=O)NS(=O)(=O)N(c2cnn(C)c2)C2CCCN(C)C2)c1C (stereo not shown) [Compound 15, 1-[(1-Methyl-1H-pyrazol-4-yl)(1-methylpiperidin-3-yl)sulfamoyl]-3-(2,4,5-trimethylthiophen-3-yl)urea] | > 20000 nM | 500 to 1000 nM
Cc1csc(NC(=O)NS(=O)(=O)N(c2cnn(C)c2)C2CCCN(C)C2)c1C (stereo not shown) [Compound 17, 3-(3,4-Dimethylthiophen-2-yl)-1-[(1-methyl-1H-pyrazol-4-yl)(1-methyl-piperidin-3-yl)sulfamoyl]urea] |  | 5000 to 10000 nM
CCc1nc(NC(=O)NS(=O)(=O)N(c2cnn(C)c2)C2CCCN(C)C2)c(CC)s1 (stereo not shown) [Compound 31, 3-(2,5-Diethyl-1,3-thiazol-4-yl)-1-[(1-methyl-1H-pyrazol-4-yl)(1-methyl-piperidin-3-yl)sulfamoyl]urea] |  | 5000 to 10000 nM
CCc1cc(NC(=O)NS(=O)(=O)N(C[C@@H]2C[C@@H](F)CN2C)c2cnn(C(C)C)c2)c(CC)o1 [Compound 63, 3-(2,5-Diethylfuran-3-yl)-1-({[(2S,4R)-4-fluoro-1-methylpyrrolidin-2-yl]methyl}[1-(propan-2-yl)-1H-pyrazol-4-yl]sulfamoyl)urea] |  | 1000 to 5000 nM
CCc1cc(NC(=O)NS(=O)(=O)N(C2CCOCC2)C2CCCN(C)C2)c(CC)s1 (stereo not shown) [Compound 68, 3-(2,5-Diethylthiophen-3-yl)-1-[(1-methylpiperidin-3-yl)(oxan-4-yl)sulfamoyl]-urea] |  | 5000 to 10000 nM
CCc1cc(NC(=O)NS(=O)(=O)N(CCN(C)C)c2cnn(C)c2)c(CC)o1 [Compound 72, 3-(2,5-Diethylfuran-3-yl)-1-{[2-(dimethylamino)ethyl](1-methyl-1H-pyrazol-4-yl)sulfamoyl}urea] |  | 1000 to 5000 nM
CCc1cc(NC(=O)NS(=O)(=O)N(CC2CCCO2)c2cnn(C)c2)c(CC)o1 (stereo not shown) [Compound 74, 1-(2,5-Diethylfuran-3-yl)-3-[(1-methyl-1H-pyrazol-4-yl)[(oxolan-2-yl)methyl]-sulfamoyl]urea] |  | 1000 to 5000 nM
Cc1cc(NC(=O)NS(=O)(=O)N(c2cnn(C3CC3)c2)[C@H]2CCCN(C)C2)c(C2CC2)s1 [Compound 105, 1-[(1-Cyclopropyl-1H-pyrazol-4-yl)[(3S)-1-methylpiperidin-3-yl]sulfamoyl]-3-(2-cyclopropyl-5-methylthiophen-3-yl)urea] |  | 100 to 500 nM

Now from value to compound, other results behind:

IC50 [1] | SMILES | IC50 [2]
3000 to 10000 nM | Cc1csc(C)c1NC(=O)NS(=O)(=O)N(c1cnn(C)c1)C1CCOCC1 [Compound 1, 3-(2,4-Dimethylthiophen-3-yl)-1-[(1-methyl-1H-pyrazol-4-yl)(oxan-4-yl)-sulfamoyl]urea] | 1000 to 5000 nM
3000 to 10000 nM | Cc1cc(NC(=O)NS(=O)(=O)N(c2cnn(C)c2)C2CCOCC2)c(C)s1 [Compound 2, 3-(2,5-Dimethylthiophen-3-yl)-1-[(1-methyl-1H-pyrazol-4-yl)(oxan-4-yl)sulfamoyl]urea] | 500 to 1000 nM
10000 to 20000 nM | CCc1cc(NC(=O)NS(=O)(=O)N(c2cnn(C)c2)C2CCOCC2)c(CC)s1 [Compound 4, 3-(2,5-Diethylthiophen-3-yl)-1-[(1-methyl-1H-pyrazol-4-yl)(oxan-4-yl)sulfamoyl]urea] | 1000 to 5000 nM
10000 to 20000 nM | CCc1csc(CC)c1NC(=O)NS(=O)(=O)N(c1cnn(C)c1)C1CCOCC1 [Compound 7, 3-(2,4-Diethylthiophen-3-yl)-1-[(1-methyl-1H-pyrazol-4-yl)(oxan-4-yl)sulfamoyl]urea] | 1000 to 5000 nM
1000 to 3000 nM | Cc1cc(NC(=O)NS(=O)(=O)N(c2cnn(C)c2)C2CCCN(C)C2)c(C)s1 (stereo not shown) [Compound 8, 3-(2,5-Dimethylthiophen-3-yl)-1-[(1-methyl-1H-pyrazol-4-yl)(1-methyl-piperidin-3-yl)sulfamoyl]urea] | 1000 to 5000 nM
3000 to 10000 nM | Cc1csc(C)c1NC(=O)NS(=O)(=O)N(c1cnn(C)c1)C1CCCN(C)C1 (stereo not shown) [Compound 9, 3-(2,4-Dimethylthiophen-3-yl)-1-[(1-methyl-1H-pyrazol-4-yl)(1-methyl-piperidin-3-yl)sulfamoyl]urea] | 1000 to 5000 nM
10000 to 20000 nM | Cc1cc(C)c(NC(=O)NS(=O)(=O)N(c2cnn(C)c2)C2CCCN(C)C2)s1 (stereo not shown) [Compound 10, 3-(3,5-Dimethylthiophen-2-yl)-1-[(1-methyl-1H-pyrazol-4-yl)(1-methyl-piperidin-3-yl)sulfamoyl]urea] | 1000 to 5000 nM
< 1000 nM | CC(C)c1cc(NC(=O)NS(=O)(=O)N(c2cnn(C)c2)C2CCCN(C)C2)c(C(C)C)s1 (stereo not shown) [Compound 11, 3-[2,5-Bis(propan-2-yl)thiophen-3-yl]-1-[(1-methyl-1H-pyrazol-4-yl)(1-methyl-piperidin-3-yl)sulfamoyl]urea] | < 100 nM
1000 to 3000 nM | Cc1sc2ccccc2c1NC(=O)NS(=O)(=O)N(c1cnn(C)c1)C1CCCN(C)C1 (stereo not shown) [Compound 12, 3-(2-Methyl-1-benzothiophen-3-yl)-1-[(1-methyl-1H-pyrazol-4-yl)(1-methyl-piperidin-3-yl)sulfamoyl]urea] | 500 to 1000 nM
< 1000 nM | CCc1cc(NC(=O)NS(=O)(=O)N(c2cnn(C)c2)C2CCCN(C)C2)c(CC)s1 (stereo not shown) [Compound 13, 3-(2,5-Diethylthiophen-3-yl)-1-[(1-methyl-1H-pyrazol-4-yl)(1-methylpiperidin-3-yl)sulfamoyl]urea] | < 100 nM
1000 to 3000 nM | CCc1csc(CC)c1NC(=O)NS(=O)(=O)N(c1cnn(C)c1)C1CCCN(C)C1 (stereo not shown) [Compound 14, 3-(2,4-Diethylthiophen-3-yl)-1-[(1-methyl-1H-pyrazol-4-yl)(1-methylpiperidin-3-yl)sulfamoyl]urea] | < 100 nM
1000 to 3000 nM | CC(C)c1csc(C(C)C)c1NC(=O)NS(=O)(=O)N(c1cnn(C)c1)C1CCCN(C)C1 (stereo not shown) [Compound 16, 3-[2,4-Bis(propan-2-yl)thiophen-3-yl]-1-[(1-methyl-1H-pyrazol-4-yl)(1-methyl-piperidin-3-yl)sulfamoyl]urea] | 100 to 500 nM
1000 to 3000 nM | CC(C)c1cc(NC(=O)NS(=O)(=O)N(CCN(C)C)c2cnn(C)c2)c(C(C)C)s1 [Compound 18, 3-[2,5-Bis(propan-2-yl)thiophen-3-yl]-1-{[2-(dimethylamino)ethyl](1-methyl-1H-pyrazol-4-yl)sulfamoyl}urea] | 100 to 500 nM
1000 to 3000 nM | CCc1cc(NC(=O)NS(=O)(=O)N(CCN(C)C)c2cnn(C)c2)c(CC)s1 [Compound 19, 3-(2,5-Diethylthiophen-3-yl)-1-{[2-(dimethylamino)ethyl](1-methyl-1H-pyrazol-4-yl)sulfamoyl}urea] | 100 to 500 nM
